# Where a name gives a salt, the structure may show the parent alone.
# Key:
# human MCH-1 receptor = human MCH-1 receptor (Homo sapiens (Human), UniProt Q99705); assay: Binding Assay for Human Melanin-Concentrating Hormone (MCH-1) Receptor; conditions: radioligand displacement, membranes from CHO-K1 cells expressing human MCH-1 receptor; Ki from IC50 by Cheng Prusoff equation; read-out: MCH1 Ki
# Outline: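 Membranes from CHO-K1 cells stably expressing human MCH-1 incubated 60 min at 25 °C with 1.4 nM tritiated indazolyl-pyridinone radioligand in 50 mM Tris-HCl pH 7.4. Bound counts by filtration and scintillation; IC50 and nH by Hill fit, Ki by Cheng–Prusoff.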
# Sequence of human MCH-1 receptor (Q99705 whole entry): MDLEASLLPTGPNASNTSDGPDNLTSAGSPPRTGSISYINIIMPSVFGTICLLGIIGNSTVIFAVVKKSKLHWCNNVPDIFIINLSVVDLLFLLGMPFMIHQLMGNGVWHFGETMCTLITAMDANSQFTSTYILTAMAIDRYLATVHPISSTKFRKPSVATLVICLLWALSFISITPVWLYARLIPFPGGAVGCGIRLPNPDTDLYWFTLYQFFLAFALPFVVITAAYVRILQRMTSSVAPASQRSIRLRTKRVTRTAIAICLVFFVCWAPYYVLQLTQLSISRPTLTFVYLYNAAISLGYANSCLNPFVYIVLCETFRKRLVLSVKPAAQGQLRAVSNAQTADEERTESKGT
Compound,melting point,Ki (human MCH-1 receptor)
"Cn1c2c(c3ccc(-n4ccc(-c5ccc(C(F)(F)F)cn5)cc4=O)cc31)CCNCC2 (as salt: hydrochloride) [Example 3, 1-(6-Methyl-1,2,3,4,5,6-hexahydroazepino[4,5-b]indol-8-yl)-4-(5-(trifluoromethyl)pyridin-2-yl)pyridin-2(1H)-one dihydrochloride]",310 to 312 °C,
"Cn1c2c(c3ccc(-n4ccc(OCc5ccc(C(F)(F)F)nc5)cc4=O)cc31)CCNCC2 (as salt: hydrochloride) [Example 5, 1-(6-Methyl-1,2,3,4,5,6-hexahydroazepino[4,5-b]indol-8-yl)-4-((6-(trifluoromethyl)pyridin-3-yl)methoxy)pyridin-2(1H)-one dihydrochloride]",296 to 300 °C,
"O=c1cc(-c2ccc(C(F)(F)F)cn2)ccn1-c1ccc2c3c([nH]c2c1)CCNCC3 (as salt: hydrochloride) [Example 9, 1-(1,2,3,4,5,6-Hexahydroazepino[4,5-b]indol-8-yl)-4-(5-(trifluoromethyl)pyridin-2-yl)pyridin-2(1H)-one dihydrochloride]",288 to 290 °C,
"Cn1c2c(c3ccc(-n4ncc(OCc5ccc(F)cn5)cc4=O)cc31)CCNCC2 (as salt: hydrochloride) [Example 10, 5-((5-Fluoropyridin-2-yl)methoxy)-2-(6-methyl-1,2,3,4,5,6-hexahydroazepino[4,5-b]indol-8-yl)pyridazin-3(2H)-one dihydrochloride]",250 to 254 °C,
"CC(C)N1CCc2c(n(C)c3cc(-n4ccc(OCc5ccccc5)cc4=O)ccc23)CC1.Cl [Example 15, 4-(Benzyloxy)-1-(3-isopropyl-6-methyl-1,2,3,4,5,6-hexahydroazepino[4,5-b]indol-8-yl)pyridin-2(1H)-one hydrochloride]",256 to 258 °C,10.4 nM
"Cl.Cn1c2c(c3ccc(-n4ccc(OCc5ccccc5)cc4=O)cc31)CCCNC2 [Example 18, 4-(Benzyloxy)-1-(10-methyl-1,2,3,4,5,10-hexahydroazepino[3,4-b]indol-8-yl)pyridin-2(1H)-one hydrochloride]",210 to 218 °C (dec.),11.8 nM
Cl.Cn1c2c(c3ccc(-n4ccc(-c5ccc(C(F)(F)F)cn5)cc4=O)cc31)CCCNC2 [Example 20],288 to 296 °C (dec.),
Cl.Cn1c2c(c3ccc(-n4ccc(-c5ccc(C(F)(F)F)cc5)cc4=O)cc31)CNCCC2 [Example 26],264 to 270 °C (dec.),
Cl.Cn1c2c(c3ccc(-n4ccc(OCc5ccc(F)cn5)cc4=O)cc31)CCNCC2 [Example 40],194 to 202 °C (dec.),
Cl.Cn1c2c(c3ccc(-n4ccc(-c5ccc(C(F)(F)F)cc5)cc4=O)cc31)CCNCC2 [Example 41],306 to 310 °C (dec.),
"Cn1c2c(c3ccc(-n4ccc(OCc5ccc(F)cc5F)cc4=O)nc31)CNCCC2 [Example 94, 4-(2,4-Difluorobenzyloxy)-1-(10-methyl-5,6,7,8,9,10-hexahydropyrido[3′,2′:4,5]pyrrolo[3,2-c]azepin-2-yl)pyridin-2(1H)-one hydrochloride]",,11 nM
"Cn1c2c(c3ccc(N4CCN(CCc5ccc(F)cc5)CC4=O)cc31)CCNCC2 [Example 97, 4-(4-Fluorophenethyl)-1-(6-methyl-1,2,3,4,5,6-hexahydroazepino[4,5-b]indol-8-yl)piperazin-2-one dihydrochloride]",,13 nM
"CN1CCc2c(n(C)c3cc(N4CCN(CCc5ccc(F)cc5)CC4=O)ccc23)CC1 [Example 98, 1-(3,6-Dimethyl-1,2,3,4,5,6-hexahydroazepino[4,5-b]indol-8-yl)-4-(4-fluorophenethyl)piperazin-2-one dihydrochloride]",,13 nM
"CCN1CCc2c(n(C)c3cc(N4CCN(CCc5ccc(F)cc5)CC4=O)ccc23)CC1 [Example 99, 1-(3-Ethyl-6-methyl-1,2,3,4,5,6-hexahydroazepino[4,5-b]indol-8-yl)-4-(4-fluorophenethyl)piperazin-2-one dihydrochloride]",,17 nM
"Cn1c2c(c3ccc(-n4ccc(OCc5ccc(Cl)cc5)cc4=O)cc31)CCNCC2 [Example 100, 4-(4-Chlorobenzyloxy)-1-(6-methyl-1,2,3,4,5,6-hexahydroazepino[4,5-b]indol-8-yl)pyridin-2(1H)-one hydrochloride]",,10 nM
"Cn1c2c(c3ccc(-n4ccc(CCc5ccccc5)nc4=O)cc31)CCNCC2 [Example 101, 1-(6-Methyl-1,2,3,4,5,6-hexahydroazepino[4,5-b]indol-8-yl)-4-phenethylpyrimidin-2(1H)-one hydrochloride]",,9.9 nM
"Cn1c2c(c3ccc(-n4ccc(OCc5ccc(F)cn5)cc4=O)cc31)C(=O)NCCC2 [Example 104, 8-(4-((5-Fluoropyridin-2-yl)methoxy)-2-oxopyridin-1(2H)-yl)-6-methyl-2,3,4,5-tetrahydroazepino[4,3-b]indol-1(6H)-one]",,149 nM
"Cn1c2c(c3ccc(-n4ccc(CCc5ccccc5)nc4=O)cc31)CNCCC2 [Example 107, 1-(6-Methyl-1,2,3,4,5,6-hexahydroazepino[4,3-b]indol-8-yl)-4-phenethylpyrimidin-2(1H)-one hydrochloride]",,9.7 nM
"Cn1c2c(c3ccc(-n4ccc(-c5ccc(C(F)(F)F)nc5)nc4=O)cc31)CNCCC2 [Example 108, 1-(6-Methyl-1,2,3,4,5,6-hexahydroazepino[4,3-b]indol-8-yl)-4-(6-(trifluoromethyl)pyridin-3-yl)pyrimidin-2(1H)-one hydrochloride]",,60 nM
"Cn1c2c(c3ccc(-n4ccc(OCc5ccc(F)cc5)cc4=O)nc31)CCNCC2 [Example 110, 4-(4-Fluorobenzyloxy)-1-(10-methyl-5,6,7,8,9,10-hexahydropyrido[3′,2′:4,5]pyrrolo[2,3-d]azepin-2-yl)pyridin-2(1H)-one hydrochloride]",,12 nM
"Cn1c2c(c3ccc(-n4ccc(OCc5ncc(F)cc5F)cc4=O)nc31)CCNCC2 [Example 111, 4-((3,5-Difluoropyridin-2-yl)methoxy)-1-(10-methyl-5,6,7,8,9,10-hexahydropyrido[3′,2′:4,5]pyrrolo[2,3-d]azepin-2-yl)pyridin-2(1H)-one hydrochloride]",,71 nM
"Cn1c2c(c3ccc(-n4ccc(OCc5ncc(F)cc5F)cc4=O)nc31)CNCCC2 [Example 114, 4-((3,5-Difluoropyridin-2-yl)methoxy)-1-(10-methyl-5,6,7,8,9,10-hexahydropyrido[3′,2′:4,5]pyrrolo[3,2-c]azepin-2-yl)pyridin-2(1H)-one hydrochloride]",,44 nM

# Continued, values first:
melting point,Ki (human MCH-1 receptor),Compound
258 to 260 °C,6 nM,"Cl.O=c1cc(OCc2ccccc2)ccn1-c1ccc2c3c([nH]c2c1)CCNCC3 [Example 7, 4-(Benzyloxy)-1-(1,2,3,4,5,6-hexahydroazepino[4,5-b]indol-8-yl)pyridin-2(1H)-one hydrochloride]"
246 to 248 °C,9.6 nM,"CCN1CCc2c(n(C)c3cc(-n4ccc(OCc5ccccc5)cc4=O)ccc23)CC1.Cl [Example 14, 4-(Benzyloxy)-1-(3-ethyl-6-methyl-1,2,3,4,5,6-hexahydroazepino[4,5-b]indol-8-yl)pyridin-2(1H)-one hydrochloride]"
152 to 155 °C,7.2 nM,"CC(C)N1CCc2[nH]c3cc(-n4ccc(OCc5ccccc5)cc4=O)ccc3c2CC1.Cl [Example 17, 4-(Benzyloxy)-1-(3-isopropyl-1,2,3,4,5,6-hexahydroazepino[4,5-b]indol-8-yl)pyridin-2(1H)-one hydrochloride]"
,7.8 nM,"Cn1c2c(c3ccc(-n4ccc(-c5ccc(C(F)(F)F)cc5)cc4=O)nc31)CNCCC2 [Example 95, 1-(10-methyl-5,6,7,8,9,10-hexahydropyrido[3′,2′:4,5]pyrrolo[3,2-c]azepin-2-yl)-4-(4-(trifluoromethyl)phenyl)pyridin-2(1H)-one hydrochloride]"
,9.2 nM,"Cn1c2c(c3ccc(-n4ccc(OCc5ccc(Cl)cc5F)cc4=O)nc31)CNCCC2 [Example 96, 4-(4-Chloro-2-fluorobenzyloxy)-1-(10-methyl-5,6,7,8,9,10-hexahydropyrido[3′,2′:4,5]pyrrolo[3,2-c]azepin-2-yl)pyridin-2(1H)-one hydrochloride]"
,6 nM,"Cn1c2c(c3ccc(-n4ccc(OCc5ccc(F)cc5)cc4=O)cc31)CNCCC2 [Example 103, 4-(4-Fluorobenzyloxy)-1-(6-methyl-1,2,3,4,5,6-hexahydroazepino[4,3-b]indol-8-yl)pyridin-2(1H)-one hydrochloride]"
,7.6 nM,"Cn1c2c(c3ccc(-n4ccc(OCc5ccc(Cl)cc5)cc4=O)cc31)CNCCC2 [Example 105, 4-(4-Chlorobenzyloxy)-1-(6-methyl-1,2,3,4,5,6-hexahydroazepino[4,3-b]indol-8-yl)pyridin-2(1H)-one hydrochloride]"
,9.6 nM,"Cn1c2c(c3ccc(-n4ccc(OCc5ccc(Cl)cc5)cc4=O)nc31)CCNCC2 [Example 109, 4-(4-Chlorobenzyloxy)-1-(10-methyl-5,6,7,8,9,10-hexahydropyrido[3′,2′:4,5]pyrrolo[2,3-d]azepin-2-yl)pyridin-2(1H)-one hydrochloride]"
,8.9 nM,"Cn1c2c(c3ccc(-n4ccc(OCc5ccc(F)cc5)cc4=O)nc31)CNCCC2 [Example 112, 4-(4-Fluorobenzyloxy)-1-(10-methyl-5,6,7,8,9,10-hexahydropyrido[3′,2′:4,5]pyrrolo[3,2-c]azepin-2-yl)pyridin-2(1H)-one hydrochloride]"
,5.9 nM,"Cn1c2c(c3ccc(-n4ccc(OCc5ccc(Cl)cc5)cc4=O)nc31)CNCCC2 [Example 113, 4-(4-Chlorobenzyloxy)-1-(10-methyl-5,6,7,8,9,10-hexahydropyrido[3′,2′:4,5]pyrrolo[3,2-c]azepin-2-yl)pyridin-2(1H)-one hydrochloride]"
